Laboratory results reported in PubChem BioAssay (NCI).
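Growth conditions: 96-well plates. Treatment: test compound, 48 hours, 5 concentrations. Analysis: linear interpolation between bracketing concentrations; unreached endpoints set to highest concentration. TGI is the concentration that stops growth completely.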

Assays:
Experiment in all cases: growth of human tumour cells (NCI), 48 h
A498 renal = test system: A498 renal
HOP-62 NSCLC = test system: HOP-62 NSCLC
M14 melanoma = test system: M14 melanoma
MCF7 breast = test system: MCF7 breast
NCI-H460 lung = test system: NCI-H460 lung
OVCAR-3 ovarian = test system: OVCAR-3 ovarian
SF-295 CNS = test system: SF-295 CNS
SK-OV-3 ovarian = test system: SK-OV-3 ovarian
TK-10 renal = test system: TK-10 renal
UACC-62 melanoma = test system: UACC-62 melanoma

| SMILES | TGI (A498 renal) | TGI (HOP-62 NSCLC) | TGI (M14 melanoma) | TGI (MCF7 breast) | TGI (NCI-H460 lung) | TGI (OVCAR-3 ovarian) | TGI (SF-295 CNS) | TGI (SK-OV-3 ovarian) | TGI (TK-10 renal) | TGI (UACC-62 melanoma) |
| --- | --- | --- | --- | --- | --- | --- | --- | --- | --- | --- |
| O=[N+]([O-])c1ccc(Cc2nc3cc4ccccc4cc3[nH]2)cc1C(F)(F)F | 33.5 µM | 27.3 µM | 25.2 µM | 55.5 µM | 38.5 µM | 26 µM | 29 µM | 31 µM | 35.8 µM |  |
| COC1=CC(=O)c2c(c(COC(C)=O)cn2C)C1=O | 0.586 µM |  | 0.195 µM | 2.5 µM | 0.835 µM | 0.395 µM | 0.0692 µM | 0.677 µM | 0.207 µM | 0.283 µM |
| CC(=O)Nc1c2sscc-2n(C)c1=O | 3.27 µM | 3.15 µM | 0.865 µM | 1.69 µM | 1.32 µM | 3.3 µM | 2.65 µM | 2.84 µM | 4.83 µM | 5.36 µM |
| CN(CC(=O)O)CC(=O)O | > 100 µM | > 100 µM | > 100 µM | > 100 µM | > 100 µM | > 100 µM | > 100 µM | > 100 µM | > 100 µM | > 100 µM |
| O=C(CC(Cc1ccccc1)c1ccc(Oc2ccccc2)cc1)Nc1cccc(Cl)c1 (stereo not drawn) | 26.3 µM | > 100 µM | > 100 µM | 18.3 µM | > 100 µM | 49.6 µM | 15.4 µM | > 100 µM | > 100 µM | 14.8 µM |
| N#CC(NNC(=O)c1c(Cl)c(Cl)c(Cl)c(Cl)c1-c1nc2ccc(C(=O)c3ccccc3)cc2[nH]1)c1ccccc1 (stereo not drawn) |  | 63.7 µM | 31.1 µM | 12.7 µM |  | 57 µM | 22.1 µM | 69.8 µM | 90.8 µM |  |
| COc1ccc(N2C(=O)C(=O)N(C)C2=O)c2ccccc12 | > 10 µM | > 10 µM | > 10 µM | > 10 µM | > 10 µM | > 10 µM | > 10 µM | > 10 µM | > 10 µM | > 10 µM |
| C1=Nc2ccccc2Cn2nncc21 |  | > 100 µM | > 100 µM |  | > 100 µM | > 100 µM |  | > 100 µM | > 100 µM | 55.3 µM |
| O=c1ccc2c(Cl)cccc2o1 | > 100 µM | > 100 µM | > 100 µM | > 100 µM | > 100 µM | > 100 µM | > 100 µM |  | > 100 µM | > 100 µM |
| O=S(=O)(Nc1nccs1)c1ccc([As](=O)(O)O)cc1 | > 100 µM | > 100 µM | > 100 µM | > 100 µM | > 100 µM | > 100 µM | > 100 µM | > 100 µM | > 100 µM | > 100 µM |
| COc1cc(/C=N/N=C(\N)NO)ccc1O | > 100 µM |  |  |  | > 100 µM |  | > 100 µM | > 100 µM |  | > 100 µM |
| O=[N+]([O-])c1ccc(NNN=Nc2ccc(-c3nc4ccccc4[nH]3)cc2)c([N+](=O)[O-])c1 | 89.5 µM | > 100 µM | > 100 µM | 57.6 µM | > 100 µM | > 100 µM | > 100 µM | > 100 µM | > 100 µM | 38 µM |
| CCN(CC)CCCC(C)Nc1c2ccc(Cl)cc2nc2cc(Cl)ccc12 (stereo not drawn) | 21.9 µM | 22.1 µM |  | 9.49 µM | 12 µM | 13.4 µM | 8.49 µM | 21.9 µM |  | 16.1 µM |
| OCC(O)C(O)C(O)C(O)CNCCO/N=C1/C(c2c(O)[nH]c3ccccc23)=Nc2ccccc21 (stereo not drawn) |  | 22.9 µM | > 50 µM | 33.1 µM | > 50 µM | 26.3 µM | > 50 µM | 29.8 µM | > 50 µM | 17.5 µM |
| CC(C(=O)NCCNC(=O)CCCC(=O)N(C)O)C(=O)NCCNC(=O)CCCC(=O)N(C)O | > 100 µM | > 100 µM | > 100 µM | > 100 µM | > 100 µM | > 100 µM | > 100 µM | > 100 µM | > 100 µM | > 100 µM |
| CSC1=C(SC)C(=O)c2cn(C)c(=O)cc2C1=O | 28.4 µM | 24.8 µM | 3.14 µM | 4.49 µM | 32 µM | 3.54 µM | 26 µM | 31.3 µM | 5.39 µM | 7.21 µM |
